From US9340590B2 (priority 2011, dated 2016) come the findings set out here.

In test [1] the target is hNav1.5 (Homo sapiens, UniProt Q14524). The test is described as follows: cell-based.
Test [2] deals with hNav1.3 (Homo sapiens, UniProt Q9NY46). The test is described as follows: cell-based. Particulars: IonWorks Quattro, read-out: IWQ Use Nav1.3. (In general: Patch clamp records ionic current or voltage across a cell membrane.)
[3] abbreviates: IonWorks Quattro, Use, read-out: IWQ Use Nav1.5.
The mark [4] stands for this setting: IonWorks Quattro, clamped to −110 mV, depolarized to −10 mV, 5 min after compound, n=2, read-out: IWQ Use Nav1.5.
Where [5] appears, read: clamped to −110 mV, depolarized to −10 mV, 5 min after compound, n=2.

Where two headings read alike, the source gives them in different places. Positions of bridges follow the written chain, without caps; N, C: chain ends. Residues, ends and D or L forms follow the SMILES beside them.

Sequence of hNav1.5 (Q14524 whole entry, looked up): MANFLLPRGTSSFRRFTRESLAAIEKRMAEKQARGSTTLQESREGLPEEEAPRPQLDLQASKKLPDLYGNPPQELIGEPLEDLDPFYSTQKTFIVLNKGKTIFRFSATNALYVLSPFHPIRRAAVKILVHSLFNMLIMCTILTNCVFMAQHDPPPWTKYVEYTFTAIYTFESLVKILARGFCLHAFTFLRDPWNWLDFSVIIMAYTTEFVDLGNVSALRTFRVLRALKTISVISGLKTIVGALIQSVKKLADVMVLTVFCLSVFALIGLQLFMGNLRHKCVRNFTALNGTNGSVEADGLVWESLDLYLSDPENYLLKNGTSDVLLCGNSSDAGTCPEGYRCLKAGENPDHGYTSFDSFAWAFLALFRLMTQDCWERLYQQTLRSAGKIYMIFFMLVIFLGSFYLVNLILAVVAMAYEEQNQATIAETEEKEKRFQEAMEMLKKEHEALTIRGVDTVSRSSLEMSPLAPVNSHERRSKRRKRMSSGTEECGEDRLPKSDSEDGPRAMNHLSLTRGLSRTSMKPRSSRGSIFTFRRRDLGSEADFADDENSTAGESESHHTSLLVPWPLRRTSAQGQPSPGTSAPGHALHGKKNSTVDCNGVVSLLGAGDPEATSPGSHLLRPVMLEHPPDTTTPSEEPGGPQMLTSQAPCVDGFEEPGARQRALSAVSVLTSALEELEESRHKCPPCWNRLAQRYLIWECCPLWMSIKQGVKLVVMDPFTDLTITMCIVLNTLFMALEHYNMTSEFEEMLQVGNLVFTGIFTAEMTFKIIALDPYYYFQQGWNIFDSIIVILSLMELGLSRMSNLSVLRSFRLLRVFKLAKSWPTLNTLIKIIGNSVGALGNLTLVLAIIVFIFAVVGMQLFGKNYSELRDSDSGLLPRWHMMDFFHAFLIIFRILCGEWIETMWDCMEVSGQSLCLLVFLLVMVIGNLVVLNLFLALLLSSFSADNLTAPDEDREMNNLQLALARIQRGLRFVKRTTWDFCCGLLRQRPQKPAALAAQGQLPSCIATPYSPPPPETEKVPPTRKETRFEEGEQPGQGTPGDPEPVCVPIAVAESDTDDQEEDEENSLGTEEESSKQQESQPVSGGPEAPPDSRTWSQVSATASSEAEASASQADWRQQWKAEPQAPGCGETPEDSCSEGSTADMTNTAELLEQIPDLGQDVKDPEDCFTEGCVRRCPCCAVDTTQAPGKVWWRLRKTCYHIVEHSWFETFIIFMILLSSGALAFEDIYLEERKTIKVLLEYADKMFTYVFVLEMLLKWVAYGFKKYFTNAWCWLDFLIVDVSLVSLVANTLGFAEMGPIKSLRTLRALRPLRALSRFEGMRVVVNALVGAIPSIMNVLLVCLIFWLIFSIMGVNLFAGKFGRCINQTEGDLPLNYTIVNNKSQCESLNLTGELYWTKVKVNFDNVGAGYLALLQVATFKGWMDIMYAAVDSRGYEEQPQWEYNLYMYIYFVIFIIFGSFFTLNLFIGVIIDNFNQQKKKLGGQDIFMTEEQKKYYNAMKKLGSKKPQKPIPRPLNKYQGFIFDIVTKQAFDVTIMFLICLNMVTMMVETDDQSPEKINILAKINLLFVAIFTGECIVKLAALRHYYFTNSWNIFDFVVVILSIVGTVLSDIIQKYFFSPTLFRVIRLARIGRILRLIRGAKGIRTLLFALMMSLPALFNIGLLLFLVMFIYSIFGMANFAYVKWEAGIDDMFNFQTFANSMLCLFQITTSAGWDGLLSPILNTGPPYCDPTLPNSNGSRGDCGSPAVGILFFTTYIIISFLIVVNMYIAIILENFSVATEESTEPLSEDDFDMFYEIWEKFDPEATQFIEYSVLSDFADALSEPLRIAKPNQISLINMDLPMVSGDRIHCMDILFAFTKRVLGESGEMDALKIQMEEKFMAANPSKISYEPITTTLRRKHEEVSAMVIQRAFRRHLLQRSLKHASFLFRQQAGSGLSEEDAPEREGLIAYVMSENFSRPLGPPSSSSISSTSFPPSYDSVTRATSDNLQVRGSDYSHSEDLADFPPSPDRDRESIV
Sequence of hNav1.3 (Q9NY46 whole entry, looked up): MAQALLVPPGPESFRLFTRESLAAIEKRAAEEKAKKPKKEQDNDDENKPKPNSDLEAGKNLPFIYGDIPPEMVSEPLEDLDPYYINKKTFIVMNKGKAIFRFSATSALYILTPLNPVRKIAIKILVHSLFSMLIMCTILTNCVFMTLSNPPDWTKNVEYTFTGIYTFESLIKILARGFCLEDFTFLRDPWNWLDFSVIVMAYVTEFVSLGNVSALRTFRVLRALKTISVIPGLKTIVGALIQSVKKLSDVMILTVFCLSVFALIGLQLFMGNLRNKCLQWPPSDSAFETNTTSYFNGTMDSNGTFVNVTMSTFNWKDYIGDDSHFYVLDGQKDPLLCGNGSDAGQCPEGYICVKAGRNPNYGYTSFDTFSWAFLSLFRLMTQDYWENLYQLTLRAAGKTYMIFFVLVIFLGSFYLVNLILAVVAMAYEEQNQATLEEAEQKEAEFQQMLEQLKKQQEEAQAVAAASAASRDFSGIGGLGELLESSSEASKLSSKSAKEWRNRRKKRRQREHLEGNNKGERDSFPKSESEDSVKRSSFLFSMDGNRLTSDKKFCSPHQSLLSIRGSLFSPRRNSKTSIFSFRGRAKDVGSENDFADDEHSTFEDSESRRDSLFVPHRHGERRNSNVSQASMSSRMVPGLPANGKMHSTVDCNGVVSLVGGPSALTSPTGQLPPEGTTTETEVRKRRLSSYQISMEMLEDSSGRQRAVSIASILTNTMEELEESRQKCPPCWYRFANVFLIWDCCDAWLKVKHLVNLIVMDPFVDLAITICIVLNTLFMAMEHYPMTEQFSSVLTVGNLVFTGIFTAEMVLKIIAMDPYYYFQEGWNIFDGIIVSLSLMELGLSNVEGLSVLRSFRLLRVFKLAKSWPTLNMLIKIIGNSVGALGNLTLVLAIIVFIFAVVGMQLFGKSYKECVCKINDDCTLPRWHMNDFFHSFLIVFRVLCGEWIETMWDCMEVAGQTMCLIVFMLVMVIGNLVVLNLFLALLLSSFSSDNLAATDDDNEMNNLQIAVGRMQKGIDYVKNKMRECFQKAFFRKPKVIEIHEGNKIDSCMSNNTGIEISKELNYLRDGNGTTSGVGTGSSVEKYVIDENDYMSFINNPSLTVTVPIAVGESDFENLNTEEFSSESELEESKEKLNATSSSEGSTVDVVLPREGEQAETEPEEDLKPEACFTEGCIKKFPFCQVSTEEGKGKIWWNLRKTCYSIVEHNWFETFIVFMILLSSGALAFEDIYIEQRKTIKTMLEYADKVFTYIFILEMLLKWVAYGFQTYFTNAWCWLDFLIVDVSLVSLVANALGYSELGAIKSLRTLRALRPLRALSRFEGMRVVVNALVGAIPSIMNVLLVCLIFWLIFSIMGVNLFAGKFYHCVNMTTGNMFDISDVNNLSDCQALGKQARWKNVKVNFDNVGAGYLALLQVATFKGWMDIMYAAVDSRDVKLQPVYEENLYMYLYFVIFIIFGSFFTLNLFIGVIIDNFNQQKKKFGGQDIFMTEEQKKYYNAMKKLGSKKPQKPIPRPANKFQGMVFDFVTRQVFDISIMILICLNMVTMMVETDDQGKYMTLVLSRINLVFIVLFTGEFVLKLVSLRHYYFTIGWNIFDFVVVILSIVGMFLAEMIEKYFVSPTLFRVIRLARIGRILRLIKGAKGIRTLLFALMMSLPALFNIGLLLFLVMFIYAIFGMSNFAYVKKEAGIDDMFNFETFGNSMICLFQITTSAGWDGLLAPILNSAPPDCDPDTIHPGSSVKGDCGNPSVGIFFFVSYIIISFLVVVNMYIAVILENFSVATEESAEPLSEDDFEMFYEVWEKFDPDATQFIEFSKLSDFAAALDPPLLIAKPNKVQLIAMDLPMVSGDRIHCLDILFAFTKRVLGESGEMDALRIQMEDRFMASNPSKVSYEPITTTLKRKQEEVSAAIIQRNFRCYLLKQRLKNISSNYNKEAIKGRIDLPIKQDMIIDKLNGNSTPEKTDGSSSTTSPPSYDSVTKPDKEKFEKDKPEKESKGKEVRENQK

As for `CC[C@H](C)[C@@H]1NC(=O)[C@@H]2CSSC[C@@H]3NC(=O)[C@H](C(C)C)NC(=O)[C@H](CC(C)C)NC(=O)[C@H](CC(N)=O)NC(=O)[C@@H]4CCCN4C(=O)[C@H](CCCNC(=N)N)NC(=O)[C@H](CSSC[C@H](NC(=O)[C@@H](N)CC(=O)O)C(=O)N[C@@H](CC(C)C)C(=O)NCC(=O)N[C@@H](Cc4ccccc4)C(=O)N[C@@H](CCSC)C(=O)N[C@@H](CCCNC(=N)N)C(=O)N[C@@H](CCCCN)C(=O)N2)NC(=O)[C@H](CSSC[C@@H](C(=O)N[C@@H](CCCCN)C(=O)N[C@@H](Cc2ccc(O)cc2)C(=O)N[C@H](C(=O)N[C@@H](Cc2ccccc2)C(N)=O)C(C)C)NC(=O)[C@H](Cc2c[nH]c4ccccc24)N(C)C(=O)[C@H](CCCCN)NC(=O)[C@H](Cc2c[nH]cn2)NC(=O)[C@H]([C@@H](C)O)NC(=O)[C@H](CCCNC(=N)N)NC(=O)[C@H](CO)NC3=O)NC(=O)[C@H](CCCCN)NC(=O)[C@H](CC(=O)O)NC(=O)[C@H](CC(N)=O)NC(=O)[C@H](CC(=O)O)NC(=O)[C@@H]2CCCN2C1=O` [compound 357], the IC50 was above 5 µM in test [1] (IWQ Use Nav1.5 (μM)) and above 5 µM in test [2] (Table 24, use, […]).
Take `CC[C@H](C)[C@@H]1NC(=O)[C@@H]2CSSC[C@@H]3NC(=O)[C@H](C(C)C)NC(=O)[C@H](CC(C)C)NC(=O)[C@H](CC(N)=O)NC(=O)[C@@H]4CCCN4C(=O)[C@H](CCCNC(=N)N)NC(=O)[C@H](CSSC[C@H](NC(=O)[C@@H](N)CC(=O)O)C(=O)N[C@@H](CC(C)C)C(=O)NCC(=O)N[C@@H](Cc4ccccc4)C(=O)N[C@@H](CCSC)C(=O)N[C@@H](CCCNC(=N)N)C(=O)N[C@@H](CCCCN)C(=O)N2)NC(=O)[C@H](CSSC[C@@H](C(=O)N[C@@H](CCCCN)C(=O)N[C@@H](Cc2ccc(O)cc2)C(=O)N[C@H](C(=O)N[C@@H](Cc2ccccc2)C(N)=O)C(C)C)NC(=O)[C@H](Cc2c[nH]c4ccccc24)NC(=O)[C@H](CCCCN)NC(=O)[C@H](Cc2cnc[nH]2)NC(=O)[C@H]([C@@H](C)O)NC(=O)[C@H](CCCCN)NC(=O)[C@H](CO)NC3=O)NC(=O)[C@H](CCCCN)NC(=O)[C@H](CC(=O)O)NC(=O)[C@H](CC(N)=O)NC(=O)[C@H](CC(=O)O)NC(=O)[C@@H]2CCCN2C1=O` [compound 53] (H-DCLGFMRKCIPDNDKCCRPNLVCSKTHKWCKYVF-NH2; disulfide 2-17, 9-23, 16-30): the IC50 in test [1] (IWQ Use Nav1.5 (μM)) turned out to be 15.2 µM; in test [2] (Use), 0.24 µM.
In the case of `CSCC[C@@H]1NC(=O)[C@H](Cc2ccccc2)NC(=O)CNC(=O)[C@H](CC(C)C)NC(=O)[C@@H](NC(=O)[C@@H](N)CC(=O)O)CSSC[C@@H]2NC(=O)[C@@H]3CSSC[C@@H](C(=O)N[C@@H](CCCCN)C(=O)N[C@@H](Cc4ccc(O)cc4)C(=O)N[C@H](C(=O)N[C@@H](Cc4ccccc4)C(N)=O)C(C)C)NC(=O)[C@H](Cc4c[nH]c5ccccc45)NC(=O)[C@H](CCCCN)NC(=O)[C@H](Cc4cnc[nH]4)NC(=O)[C@H]([C@@H](C)O)NC(=O)[C@H](CCCNC(=N)N)NC(=O)[C@H](CO)NC(=O)[C@H](CSSC[C@H](NC(=O)[C@H](CCCCN)NC(=O)[C@H](CCCNC(=N)N)NC1=O)C(=O)N[C@@H](Cc1cnc[nH]1)C(=O)N1CCC[C@H]1C(=O)N[C@@H](CC(=O)O)C(=O)N[C@@H](CC(N)=O)C(=O)N[C@@H](CC(=O)O)C(=O)N[C@@H](CCCCN)C(=O)N3)NC(=O)[C@H](C(C)C)NC(=O)[C@H](CC(C)C)NC(=O)[C@H](CC(N)=O)NC(=O)[C@@H]1CCCN1C(=O)[C@H](CCCNC(=N)N)NC2=O` [compound 304] (H-DCLGFMRKCHPDNDKCCRPNLVCSRTHKWCKYVF-NH2; disulfide 2-17, 9-23, 16-30), the IC50 in test [1] (setting [3]) came out at 6.36 µM; in test [2] (Use) it was 0.03 µM.
For `CSCC[C@@H]1NC(=O)[C@H](Cc2ccccc2)NC(=O)CNC(=O)[C@H](CC(C)C)NC(=O)[C@@H](NC(=O)[C@@H](N)CC(=O)O)CSSC[C@@H]2NC(=O)[C@@H]3CSSC[C@@H](C(=O)N[C@@H](CCCCN)C(=O)N[C@@H](Cc4ccc(O)cc4)C(=O)N[C@H](C(=O)N[C@@H](Cc4ccccc4)C(N)=O)C(C)C)NC(=O)[C@H](Cc4c[nH]c5ccccc45)NC(=O)[C@H](CCCCN)NC(=O)[C@H](Cc4cnc[nH]4)NC(=O)[C@H]([C@@H](C)O)NC(=O)[C@H](CCCNC(=N)N)NC(=O)[C@H](CO)NC(=O)[C@H](CSSC[C@H](NC(=O)[C@H](CCCCN)NC(=O)[C@H](CCCNC(=N)N)NC1=O)C(=O)N[C@@H](CO)C(=O)N1CCC[C@H]1C(=O)N[C@@H](CC(=O)O)C(=O)N[C@@H](CC(N)=O)C(=O)N[C@@H](CC(=O)O)C(=O)N[C@@H](CCCCN)C(=O)N3)NC(=O)[C@H](C(C)C)NC(=O)[C@H](CC(C)C)NC(=O)[C@H](CC(N)=O)NC(=O)[C@@H]1CCCN1C(=O)[C@H](CCCNC(=N)N)NC2=O` [compound 305] (H-DCLGFMRKCSPDNDKCCRPNLVCSRTHKWCKYVF-NH2; disulfide 2-17, 9-23, 16-30), the IC50 in test [1] (setting [3]) stood at 4.64 µM; in test [2] (Use), 0.09 µM.
Regarding `CC[C@H](C)[C@@H]1NC(=O)[C@@H]2CSSC[C@@H]3NC(=O)[C@H](C(C)C)NC(=O)[C@H](CC(C)C)NC(=O)[C@H](CC(N)=O)NC(=O)[C@@H]4CCCN4C(=O)[C@H](CCCNC(=N)N)NC(=O)[C@H](CSSC[C@H](NC(=O)[C@@H](N)CC(=O)O)C(=O)N[C@@H](CC(C)C)C(=O)NCC(=O)N[C@@H](Cc4ccccc4)C(=O)N[C@@H](CCSC)C(=O)N[C@@H](CCCNC(=N)N)C(=O)N[C@@H](CCC(=O)O)C(=O)N2)NC(=O)[C@H](CSSC[C@@H](C(=O)N[C@@H](CCCCN)C(=O)N[C@@H](Cc2ccc(O)cc2)C(=O)N[C@H](C(=O)N[C@@H](Cc2ccccc2)C(N)=O)C(C)C)NC(=O)[C@H](Cc2c[nH]c4ccccc24)NC(=O)[C@H](CCCCN)NC(=O)[C@H](Cc2cnc[nH]2)NC(=O)[C@H]([C@@H](C)O)NC(=O)[C@H](CCCNC(=N)N)NC(=O)[C@H](CO)NC3=O)NC(=O)[C@H](CCCCN)NC(=O)[C@H](CC(=O)O)NC(=O)[C@H](CC(N)=O)NC(=O)[C@H](CC(=O)O)NC(=O)[C@@H]2CCCN2C1=O` [[Glu8]GpTx-1(1-34)] (H-DCLGFMRECIPDNDKCCRPNLVCSRTHKWCKYVF-NH2; disulfide 2-17, 9-23, 16-30), the IC50 in test [1] (IWQ Use Nav1.5 (μM)) came to 24.9 µM; in test [2] (use-dependent block, hNav1.3), 1.36 µM.
`CSCC[C@@H]1NC(=O)[C@H](Cc2ccccc2)NC(=O)CNC(=O)[C@H](CC(C)C)NC(=O)[C@@H](NC(=O)[C@@H](N)CC(=O)O)CSSC[C@@H]2NC(=O)[C@@H]3CSSC[C@@H](C(=O)N[C@@H](CCCCN)C(=O)N[C@@H](Cc4ccc(O)cc4)C(=O)N[C@H](C(=O)N[C@@H](Cc4ccccc4)C(N)=O)C(C)C)NC(=O)[C@H](Cc4c[nH]c5ccccc45)NC(=O)[C@H](CCCCN)NC(=O)[C@H](Cc4cnc[nH]4)NC(=O)[C@H]([C@@H](C)O)NC(=O)[C@H](CCCNC(=N)N)NC(=O)[C@H](CO)NC(=O)[C@H](CSSC[C@H](NC(=O)[C@H](CCCCN)NC(=O)[C@H](CCCNC(=N)N)NC1=O)C(=O)N[C@@H](Cc1ccc(O)cc1)C(=O)N1CCC[C@H]1C(=O)N[C@@H](CC(=O)O)C(=O)N[C@@H](CC(N)=O)C(=O)N[C@@H](CC(=O)O)C(=O)N[C@@H](CCCCN)C(=O)N3)NC(=O)[C@H](C(C)C)NC(=O)[C@H](CC(C)C)NC(=O)[C@H](CC(N)=O)NC(=O)[C@@H]1CCCN1C(=O)[C@H](CCCNC(=N)N)NC2=O` [compound 299] (H-DCLGFMRKCYPDNDKCCRPNLVCSRTHKWCKYVF-NH2; disulfide 2-17, 9-23, 16-30): the IC50 in test [1] (setting [3]) came out at 5.41 µM; in test [2] (Use) it was 0.07 µM.
For `CC[C@H](C)[C@@H]1NC(=O)[C@@H]2CSSC[C@@H]3NC(=O)[C@H](C(C)C)NC(=O)[C@H](CC(C)C)NC(=O)[C@H](CC(N)=O)NC(=O)[C@@H]4CCCN4C(=O)[C@H](CCCNC(=N)N)NC(=O)[C@H](CSSC[C@H](NC(=O)[C@@H](N)CC(=O)O)C(=O)N[C@@H](CC(C)C)C(=O)NCC(=O)N[C@@H](CCCNC(=N)N)C(=O)N[C@@H](CCSC)C(=O)N[C@@H](CCCNC(=N)N)C(=O)N[C@@H](CCCCN)C(=O)N2)NC(=O)[C@H](CSSC[C@@H](C(=O)N[C@@H](CCCCN)C(=O)N[C@@H](Cc2ccc(O)cc2)C(=O)N[C@H](C(=O)N[C@@H](Cc2ccccc2)C(N)=O)C(C)C)NC(=O)[C@H](Cc2c[nH]c4ccccc24)NC(=O)[C@H](CCCCN)NC(=O)[C@H](Cc2cnc[nH]2)NC(=O)[C@H]([C@@H](C)O)NC(=O)[C@H](CCCNC(=N)N)NC(=O)[C@H](CO)NC3=O)NC(=O)[C@H](CCCCN)NC(=O)[C@H](CC(=O)O)NC(=O)[C@H](CC(N)=O)NC(=O)[C@H](CC(=O)O)NC(=O)[C@@H]2CCCN2C1=O` [SEQ ID NO: 156] (H-DCLGRMRKCIPDNDKCCRPNLVCSRTHKWCKYVF-NH2; disulfide 2-17, 9-23, 16-30), the values for the IC50 in test [1] (setting [4]) and in test [2] (setting [5]) were 12.6 µM and 4.09 µM, respectively.
As to `CC[C@H](C)[C@@H]1NC(=O)[C@@H]2CSSC[C@@H]3NC(=O)[C@H](C(C)C)NC(=O)[C@H](CC(C)C)NC(=O)[C@H](CC(N)=O)NC(=O)[C@@H]4CCCN4C(=O)[C@H](CCCNC(=N)N)NC(=O)[C@H](CSSC[C@H](NC(=O)[C@@H](N)CC(=O)O)C(=O)N[C@@H](CCCNC(=N)N)C(=O)NCC(=O)N[C@@H](Cc4ccccc4)C(=O)N[C@@H](CCSC)C(=O)N[C@@H](CCCNC(=N)N)C(=O)N[C@@H](CCCCN)C(=O)N2)NC(=O)[C@H](CSSC[C@@H](C(=O)N[C@@H](CCCCN)C(=O)N[C@@H](Cc2ccc(O)cc2)C(=O)N[C@H](C(=O)N[C@@H](Cc2ccccc2)C(N)=O)C(C)C)NC(=O)[C@H](Cc2c[nH]c4ccccc24)NC(=O)[C@H](CCCCN)NC(=O)[C@H](Cc2cnc[nH]2)NC(=O)[C@H]([C@@H](C)O)NC(=O)[C@H](CCCNC(=N)N)NC(=O)[C@H](CO)NC3=O)NC(=O)[C@H](CCCCN)NC(=O)[C@H](CC(=O)O)NC(=O)[C@H](CC(N)=O)NC(=O)[C@H](CC(=O)O)NC(=O)[C@@H]2CCCN2C1=O` [SEQ ID NO: 155] (H-DCRGFMRKCIPDNDKCCRPNLVCSRTHKWCKYVF-NH2; disulfide 2-17, 9-23, 16-30), the IC50 in test [1] (setting [4]) is 8.45 µM; in test [2] (setting [5]) it was 0.05 µM.
